Columns and labels:
Snca mRNA = Snca mRNA in rat primary cortical neurons; assay type: cell-based; settings: metaproterenol 5 μM, clenbuterol 20 μM, salbutamol 10 μM, 48 hours
Method: (§1) Primary cortical cultures were generated from E18 Sprague-Dawley rat embryos. The cortical region was dissected out in Hank's Balanced Salt Solution buffered with Hepes and dissociated with 0.125% trypsin (Invitrogen) for 17 min at 37 ° C., followed by trituration. Dissociated cells were plated at a density of 5×10^5 cells/well or 2.5×10^5 cells/well in 12-well or 24-well plates, respectively precoated with poly-D lysine (100 μg/mL). The cells were cultured in Neurobasal medium with B-27 supplement (Invitrogen) and glutamax and gentamycin. Half of the medium was changed every 4 days. Cortical neurons were treated with β2AR agonists 10 days post plating. They were then harvested 48 hours post-treatment for mRNA extraction and 72 hours post-treatment for protein extraction.
Total RNA from flash-frozen mice brain tissue, rodent primary cells, human neuroblastoma cells and iPSC-derived neuronal cells was isolated using TRIzol® (Life Technologies) following the manufacturer's protocol. RNA concentration was measured using NanoDrop spectrophotometer (Thermo Fisher Scientific, Wilmington, De.). 2 μg of total RNA was reverse transcribed into cDNA using the High Capacity cDNA Reverse Transcription Kit from Applied Biosystems. Quantitative PCR was performed using TaqMan Universal PCR Master Mix (Applied Biosystems) on an ABI 7900HT instrument (Applied Biosystems) as described previously (31). For mouse brain tissue and rat primary cortical neuron samples, rodent-specific TaqMan Assay on-demand primers and probes were used to assay the relative abundance of target genes, and rodent Rp113 was used as a reference gene to normalize for RNA loading. Similar results were obtained when Actb or Ubc were used as controls for input RNA. For human neuroblastoma and iPSC-derived neuron samples, human TaqMan Assay on-demand probes were used to assay the relative abundance of target genes, and the geometric mean of the three human reference genes RPL13, GUSB and UBC was used to normalize for RNA loading. Expression values were analyzed using the comparative threshold cycle method (31).

Parkinson's disease = test: Norwegian Prescription Database analysis of incident Parkinson's disease; assay type: in vivo, human
Description: We included the entire population of Norway alive on 1 Jan. 2004 by linking the Norwegian National Registry (NNR) with the Norwegian Prescription Database (NorPD) using the unique national identification number. The NNR contains information on all residents in Norway, time of immigration, emigration and death. This information was further linked to the Norwegian National Education Database (NNED) to assess level of education of all participants.
This registry contains complete information on all prescribed drugs dispensed at pharmacies to individuals since 2004. Each prescription includes the national identification number, which makes it possible to generate a precise chronological prescription record for individuals over time, and to link this information to other registries. Drugs are classified according to the Anatomical Therapeutic Chemical classification and doses are reported as defined daily dose (DDD). If the national insurance scheme covers the cost of the drug, the prescription also contains the diagnosis the drug was prescribed for (from 2008: ICD-10 and ICPC; before 2008: local diagnostic code).
The first year of prescription of any antiparkinson drug (N04) was considered year of onset of PD. We used the year 2004 as a washout-period to only include incident cases.
To further limit the chance of reverse causality, we only included users who had been prescribed at least 365 DDD or more of propranolol.
The level of education was categorized into primary education, secondary education, undergraduate education or graduate education. Age at study start was categorized in 5 years intervals. […] Outcome was PD as defined above at time of first prescription of an antiparkinson drug. Participants not developing PD were censored at end of follow-up (31 Dec. 2014), at date of death or date of emigration out of Norway, whichever occurred first. To test for dose-response effects, we categorized participants according to the cumulative number of DDD in 2004-2007 and estimated the RR of developing PD in 2008-2014. […] The hazard ratios were interpreted as rate ratios.

α-synuclein protein [1] = test: α-synuclein protein in rat primary cortical neurons (ELISA); assay type: cell-based; settings: metaproterenol 5 μM, clenbuterol 20 μM, salbutamol 10 μM, 72 hours
Method: as §1
Protein lysis buffer containing 320 mM sucrose, 5 mM NaF, 1 mM Na3VO4, 10 mM Tris (pH 7.4), 1 mM EGTA, and 1 mM EDTA was used for mice brain tissue lysis. 100 μL of cold extraction buffer was added to each sample and homogenized in a dounce homogenizer. […] Total protein concentrations were determined by BCA assay (Thermo Scientific) according to the manufacturer's instructions. Total α-synuclein was quantified using an α-synuclein-specific sandwich ELISA.
(§2) An α-synuclein-specific Meso Scale Discovery (MSD) ELISA assay (described in Ref. (11)) was utilized for endogenous α-synuclein protein measurement. […] After samples were emptied and plate washed 3 times with TBS-T, sulfo-tagged SOY1 mAb (detection Ab) (generated using Sulfo-Tag-NHS-Ester (MSD) diluted in blocking buffer (6.7 ng/μl), was added to the plate (30 μl volumes/well) and shaken for 1 hour at room temperature. Following 3 washes, MSD Read (2×, diluted in ultrapure water) buffer was added and the plates were immediately measured using a MSD Sector 2400 imager. For confirmatory studies, an second α-synuclein-specific ELISA implementation was used employing a different, extensively published anti-α-synuclein detection antibody (Syn-1 mAb) and a different anti-α-synuclein capture antibody (1H9, courtesy Dr. Selkoe).

α-synuclein protein [2] = test: α-synuclein-specific ELISA in SK-N-MC cells; assay type: cell-based, human
Method: Protein lysis buffer containing 320 mM sucrose, 5 mM NaF, 1 mM Na3VO4, 10 mM Tris (pH 7.4), 1 mM EGTA, and 1 mM EDTA was used for mice brain tissue lysis. 100 μL of cold extraction buffer was added to each sample and homogenized in a dounce homogenizer. After incubating on ice for 10 minutes post-homogenization, samples were centrifuged at 10,000 rpm at 4° C. for 10 minutes. Supernatant was transferred to new tubes and centrifuged again at 10,000 rpm at 4° C. for additional 10 minutes. The final supernatant was transferred to new tubes and protein estimation was performed by ELISA. Total protein from rodent primary cells, human neuroblastoma cells and iPSC-derived neuronal cells was extracted using lysis buffer containing 1×PBS and 0.5% NP-40. Cells were washed once with cold PBS and lysed by adding cold lysis buffer. The cells were collected by scraping, then incubated for 30 minutes by rotating at 4° C. The samples were centrifuged at 14,000 rpm at 4° C. for 10 minutes and supernatant was transferred to new tubes. Total protein concentrations were determined by BCA assay (Thermo Scientific) according to the manufacturer's instructions. Total α-synuclein was quantified using an α-synuclein-specific sandwich ELISA.
as §2

SMILES | endogenous Snca mRNA (Snca mRNA) | Rate ratio (RR) for Parkinson's disease during 2008-2014, multivariate adjusted (Parkinson's disease; High (≥180 DDD) prescribed during 2004-2007, vs never user) | Rate ratio (RR) for Parkinson's disease during 2008-2014, multivariate adjusted (Parkinson's disease; Medium (60-180 DDD) prescribed during 2004-2007, vs never user) | α-synuclein protein levels (α-synuclein protein [1]) | Rate ratio (RR) for Parkinson's disease, age-, sex-adjusted (Parkinson's disease; ever user vs never user, 11 year follow-up of the entire population of Norway, propranolol: at least 365 defined daily doses) | Rate ratio (RR) for Parkinson's disease, multivariate adjusted (Parkinson's disease; ever user vs never user, 11 year follow-up, adjusted for age, sex and level of education, propranolol: at least 365 defined daily doses) | Rate ratio for Parkinson's disease with time lag between first exposure and PD onset (Parkinson's disease; time lags of one and two years, only cardiovascular diagnoses) | endogenous α-synuclein protein under β2AR antagonism (α-synuclein protein [2]; SK-N-MC cells) | α-synuclein protein after 14 days (α-synuclein protein [2]; SK-N-MC cells, 10 μM, 14 days) | α-synuclein protein levels with increasing concentrations (α-synuclein protein [2]; SK-N-MC cells, 5, 10, 20 μM, four days)
CC(C)(C)NCC(O)c1ccc(O)c(CO)c1 (stereo not drawn) [Salbutamol, salbutamol] | significantly, but modestly, reduced | 0.45 (0.31-0.67) | 0.60 (0.40-0.91) | significantly, but modestly, reduced |  |  |  |  |  | 
CC(C)NCC(O)COc1cccc2ccccc12 (stereo not drawn) [Propranolol, propranolol] |  |  |  |  | 2.16 | 2.20 | 1.82 | increased |  | 
CC(C)(C)NCC(O)c1cc(Cl)c(N)c(Cl)c1 (stereo not drawn) [clenbuterol] | significantly, but modestly, reduced |  |  | significantly, but modestly, reduced |  |  |  |  | lowered | decrease
